The source of these data is patent publication US9693563B2, “Boron-silane polyether complex” (3M INNOVATIVE PROPERTIES COMPANY, priority 2013, dated 2017).

The series in a line: Electrical conductivity of borax, silane polyether and borax-SPE complex solutions. Type of series: physicochemical. As to conditions: for Conductivity: 25° C., 20 ml solution. As for the experimental part: Electrical conductivity is an effective quantitative tool to study complex formation in water for the system of a weak acid and a weak base. In the current study, the silane polyether acts as the weak acid (pH around 6) and borax acts as the weak base (pH around 9). The following analyses were carried out at 25° C. using a 20 ml solution of borax or SPE-1. Conductivity was measure at 45 minutes (immediately after complexation). The results are reported in Table 4a in units of microSiemens per centimeter (μS/cm).
The electrical conductivity of 0.025 M solutions of borax-SPE complex were prepared at various molar ratios of borax to silane polyether (B:S). The following analyses were carried out at 25° C. using a 20 ml solution. Conductivity was measure at 45 minutes and again after 24 hours to assess the stability of the complex.

As to `O=BOB(O)OB(O)OB=O` [Borax, borax (Na2B4O7.10H2O)], the Conductivity runs as follows: (0.0005M) 133 μS/cm; (0.001M) 260 μS/cm; (0.005M) 853 μS/cm; (0.01M) 1225 μS/cm; (0.05M) 4530 μS/cm; (0.1M) 9000 μS/cm. Further, the pH entry (weak acid / weak base in water) is recorded as “around 9”.
